Reference: US10239851B2 (priority 2014, dated 2019)
Like-named read-outs stand apart in the source and are kept apart here.

Tests used:
[1] = test system: human prostate cancer PC-3; details: for Tumor volume (mm^3) (D0): D0 (baseline at grouping);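 on all read-outs here: PC-3 tumors were established by implanting the cells under the skin of nude mice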
Text: Test of the inhibitory activity of the water soluble cabazitaxel derivatives on subcutaneously xenografted tumor of human prostate cancer PC-3 in nude mice: evaluating and comparing the inhibitory activity of the water soluble cabazitaxel derivatives and cabazitaxel on subcutaneously xenografted tumor of human prostate cancer PC-3 in nude mice.
Human prostate cancer PC-3 cells were subcutaneously inoculated into nude mice. After the tumor volume reached 100-150 mm^3, the animals were randomly divided into several groups, and administered with the water soluble cabazitaxel derivatives of the present invention and cabazitaxel, respectively once on the same day (D0). The tumor volume was measured 2-3 times per week, the animals were weighed and the data were recorded until day 20 (D20) after grouping.
The tumor volume (V) was calculated according to the equation: V=½×a×b^2, wherein a and b represent the length and the width, respectively.
T/C (%)=(T−T0)/(C−C0)×100, wherein T and C represent the tumor volume at the end of the experiment; and T0 and C0 represent the tumor volume at the beginning of the experiment.

[2] = In vitro dissociation of the water soluble taxane derivatives in blood plasma of rat; assay type: in vitro ADME, SD rats; details: 37° C.
Method: The obtained water soluble taxane derivatives were formulated as 0.2 mg/ml aqueous solutions. […] After 2 min, 5 min and 10 min of incubation, 0.2 ml of solutions were respectively taken from each of the samples, and added to acetonitrile (0.4 ml) cooled to −20° C. for precipitation of protein.

[3] = In vitro dissociation of the water soluble taxane derivatives in blood plasma of rabbit; assay type: in vitro ADME, New Zealand white rabbits; details: 37° C.
Method: The obtained water soluble taxane derivatives were formulated as 0.2 mg/ml aqueous solutions. […] After 5 min, 20 min and 60 min of incubation, 0.2 ml of solutions were respectively taken from each of the samples, and added to acetonitrile (0.4 ml) cooled to −20° C. for precipitation of protein.

[4] = rabbit plasma, 37° C.; for Sampling time/dissociation percent (%) 15 S / Sampling time/dissociation percent (%) 30 S: formula G derivatives
Method: (§1) 0.1 ml samples were taken from each of the solutions, added respectively to 1 ml of blood plasma of rabbit (taken from New Zealand white rabbits, treated according to conventional methods, anticoagulated with heparin) or 1 ml of blood plasma of rat (taken from live SD rats, treated according to conventional methods, anticoagulated with heparin), homogeneously mixed, and placed in a thermostatic water bath at 37° C. for incubation with time being recorded. Samples were taken at different time points after the experiment began, and 2 ml of acetonitrile was immediately added. The samples were shaken and centrifuged for 5 min (15,000 rpm), and the supernatant was then taken for HPLC analysis.

[5] = rat plasma, 37° C.
Method: as §1

[6] = PC-3 xenograft, nude mice, 13 mg/kg, D0 IV, single dose
[7] = PC-3 xenograft, nude mice, 7 mg/kg, D0 IV, single dose
[8] = PC-3 xenograft, nude mice, 13 mg/kg, D0 IV, single dose, D6

For `CO[C@H]1C(=O)[C@]2(C)[C@@H](OC)C[C@H]3OC[C@@]3(OC(C)=O)[C@H]2[C@H](OC(=O)c2ccccc2)[C@]2(O)C[C@H](OC(=O)[C@H](OC(=O)[C@@H](CCN(C)C)C(F)(F)F)[C@@H](NC(=O)OC(C)(C)C)c3ccccc3)C(C)=C1C2(C)C.CS(=O)(=O)O` [Compound 33, 2′-O-[4-(N,N-dimethyl)amino-2(R)-2-trifluoromethylbutyryl]cabazitaxel methanesulfonate], the “T/C (%) D20” value [1, 6] was −46%.
For `CO[C@H]1C(=O)[C@]2(C)[C@@H](OC)C[C@H]3OC[C@@]3(OC(C)=O)[C@H]2[C@H](OC(=O)c2ccccc2)[C@]2(O)C[C@H](OC(=O)[C@H](O)[C@@H](NC(=O)OC(C)(C)C)c3ccccc3)C(C)=C1C2(C)C` [cabazitaxel, reference compound], the “Tumor volume (mm^3) (D0)” value [1, 7] was 111.7 ± 1.8 mm^3, the “T/C (%) D20” value [1, 7] was −27% and the “Tumor inhibitory percent (%) D20” value [1, 7] was 127%. The “Tumor volume (mm^3) (D20)” value [1, 7] was 79.9 ± 24.8 mm^3 and the “Weight change (%) D6” value ([1]; mouse, in vivo, iv, 7 mg/kg) was −13.8%.
With `CO[C@H]1C(=O)[C@]2(C)[C@@H](OC)C[C@H]3OC[C@@]3(OC(C)=O)[C@H]2[C@H](OC(=O)c2ccccc2)[C@]2(O)C[C@H](OC(=O)[C@H](OC(=O)[C@H](F)CCCN(C)C)[C@@H](NC(=O)OC(C)(C)C)c3ccccc3)C(C)=C1C2(C)C.Cl` [Compound 35, 2′-O-[5-(N,N-dimethyl)amino-2(R)-fluorovaleryl]cabazitaxel hydrochloride] the “Tumor volume (mm^3) (D0)” value [1, 6] was 112.9 ± 4.4 mm^3, the “Weight change (%) D6” value [1, 8] was −16.6% and the “T/C (%) D20” value [1, 6] was −28%. The “Tumor inhibitory percent (%) D20” value [1, 6] was 64% and the “Tumor volume (mm^3) (D20)” value [1, 6] was 55.3 ± 13.8 mm^3.
In the case of `CO[C@H]1C(=O)[C@]2(C)[C@@H](OC)C[C@H]3OC[C@@]3(OC(C)=O)[C@H]2[C@H](OC(=O)c2ccccc2)[C@]2(O)C[C@H](OC(=O)[C@H](OC(=O)[C@@H](CCN(C)C)C(F)F)[C@@H](NC(=O)OC(C)(C)C)c3ccccc3)C(C)=C1C2(C)C.Cc1ccc(S(=O)(=O)O)cc1` [Compound 34, 2′-O-[4-(N,N-dimethyl)amino-2(R)-2-difluoromethylbutyryl] cabazitaxel p-toluene sulfonate], the “Tumor volume (mm^3) (D0)” value [1, 6] is reported as 116.7 ± 3.9 mm^3, the “Weight change (%) D6” value [1, 8] is reported as −16.1% and the “T/C (%) D20” value [1, 6] is reported as −37%. The “Tumor inhibitory percent (%) D20” value [1, 6] was 85% and the “Tumor volume (mm^3) (D20)” value [1, 6] was 48.4 ± 14.7 mm^3.
For `CO[C@H]1C(=O)[C@]2(C)[C@@H](OC)C[C@H]3OC[C@@]3(OC(C)=O)[C@H]2[C@H](OC(=O)c2ccccc2)[C@]2(O)C[C@H](OC(=O)[C@H](OC(=O)C(F)CCN(C)C)[C@@H](NC(=O)OC(C)(C)C)c3ccccc3)C(C)=C1C2(C)C.CS(=O)(=O)O` (stereo partly drawn) [Compound C9, 2′-O-[4-(N,N-dimethyl)amino-2(R,S)-fluorobutyryl] cabazitaxel methanesulfonate], the dissociation percent ([2]; 2 min) was 49.3%, the dissociation percent ([2]; 5 min) was 88.6% and the dissociation percent ([2]; 10 min) was 100%. The dissociation percent ([3]; 5 min) was 81.2%, the dissociation percent ([3]; 20 min) was 96.7% and the dissociation percent ([3]; 60 min) was 100%. For the same compound, the “T/C (%) D20” value [1, 6] was −66%.
With `CC(C)c1cccc(C(C)C)c1OC(=O)[C@@H](CCN(C)C)C(F)(F)F.Cl` [Compound E3, propofol 4-(N,N-dimethyl)amino-2(R)-2-trifluoromethylbutyrate hydrochloride] the dissociation percent ([4]; 15 s) was 51.7%, the dissociation percent ([4]; 30 s) was 67.2% and the dissociation percent ([5]; 5 s) was 77.5%.
With `CCN(CC)CC[C@@H](F)C(=O)O[C@@H](C(=O)O[C@H]1C[C@@]2(O)[C@@H](OC(=O)c3ccccc3)[C@@H]3[C@]4(OC(C)=O)CO[C@@H]4C[C@H](OC)[C@@]3(C)C(=O)[C@H](OC)C(=C1C)C2(C)C)[C@@H](NC(=O)OC(C)(C)C)c1ccccc1.CS(=O)(=O)O` [Compound 31, 2′-O-[4-(N,N-diethyl)amino-2(R)-fluorobutyryl]cabazitaxel methanesulfonate] the “T/C (%) D20” value [1, 6] was −50%.
In the case of `CO[C@H]1C(=O)[C@]2(C)[C@@H](OC)C[C@H]3OC[C@@]3(OC(C)=O)[C@H]2[C@H](OC(=O)c2ccccc2)[C@]2(O)C[C@H](OC(=O)[C@H](OC(=O)[C@@H](F)CCN(C)C)[C@@H](NC(=O)OC(C)(C)C)c3ccccc3)C(C)=C1C2(C)C.CS(=O)(=O)O` [Compound C8, 2′-O-[4-(N,N-dimethyl)amino-2(S)-fluorobutyryl]cabazitaxel methanesulfonate], the dissociation percent ([2]; 2 min) is reported as 49.4%, the dissociation percent ([2]; 5 min) is reported as 88.4% and the dissociation percent ([2]; 10 min) is reported as 100%. The dissociation percent ([3]; 5 min) was 85.6%, the dissociation percent ([3]; 20 min) was 94.5% and the dissociation percent ([3]; 60 min) was 100%. The “T/C (%) D20” value [1, 6] was −66%.
In the case of `CO[C@H]1C(=O)[C@]2(C)[C@@H](OC)C[C@H]3OC[C@@]3(OC(C)=O)[C@H]2[C@H](OC(=O)c2ccccc2)[C@]2(O)C[C@H](OC(=O)[C@H](OC(=O)[C@H](F)CCN(C)C(C)C)[C@@H](NC(=O)OC(C)(C)C)c3ccccc3)C(C)=C1C2(C)C.Cl` [Compound 32, 2′-O-[4-(N-methyl-N-isopropyl)amino-2(R)-fluorobutyryl]cabazitaxel hydrochloride], the “T/C (%) D20” value [1, 6] is reported as −45%.
For `CCN(C)CC[C@@H](F)C(=O)O[C@@H](C(=O)O[C@H]1C[C@@]2(O)[C@@H](OC(=O)c3ccccc3)[C@@H]3[C@]4(OC(C)=O)CO[C@@H]4C[C@H](OC)[C@@]3(C)C(=O)[C@H](OC)C(=C1C)C2(C)C)[C@@H](NC(=O)OC(C)(C)C)c1ccccc1.O=C(O)/C=C\C(=O)O` [Compound 30, 2′-O-[4-(N-methyl-N-ethyl)amino-2(R)-fluorobutyryl]cabazitaxel maleate], the “T/C (%) D20” value [1, 6] was −56%.
For `CO[C@H]1C(=O)[C@]2(C)[C@@H](OC)C[C@H]3OC[C@@]3(OC(C)=O)[C@H]2[C@H](OC(=O)c2ccccc2)[C@]2(O)C[C@H](OC(=O)[C@H](OC(=O)[C@H](F)CCCCN(C)C)[C@@H](NC(=O)OC(C)(C)C)c3ccccc3)C(C)=C1C2(C)C.O=S(=O)(O)O` [Compound 36, 2′-O-[6-(N,N-dimethyl)amino-2(R)-fluorohexanoyl]cabazitaxel sulfate], the “Tumor volume (mm^3) (D0)” value [1, 6] was 111.9 ± 3.7 mm^3, the “Weight change (%) D6” value [1, 8] was −16.8% and the “T/C (%) D20” value [1, 6] was −20%. For the same compound, the “Tumor inhibitory percent (%) D20” value [1, 6] was 46% and the “Tumor volume (mm^3) (D20)” value [1, 6] was 66.8 ± 12.4 mm^3.
With `CC(C)c1cccc(C(C)C)c1OC(=O)C(CF)CP(=O)([O-])[O-].CC(C)c1cccc(C(C)C)c1OC(=O)C(CF)CP(=O)([O-])[O-].CC(C)c1cccc(C(C)C)c1OC(=O)C(CF)CP(=O)([O-])[O-].[Al+3].[Al+3]` (racemic) [Compound G6, tri[propofol 3-phosphoryl-2(R,S)-2-monofluoromethylpropionate] dialuminum salt] the “Sampling time/dissociation percent (%) 15 S” value [4] was 27.1%, the “Sampling time/dissociation percent (%) 30 S” value [4] was 44.3% and the “Sampling time/dissociation percent (%) 5 S” value ([5]; formula G derivatives) was 22.1%. The “Sampling time/dissociation percent (%) 15 S” value ([5]; formula G derivatives) was 39.7%.
With `CC(C)c1cccc(C(C)C)c1OC(=O)[C@@H](F)CCCN(C)Cc1ccccc1.Cl` [Compound E5, propofol 5-(N-methyl-N-benzyl)amino-2(S)-2-fluorovalerate hydrochloride] the dissociation percent ([4]; 15 s) was 48.4%, the dissociation percent ([4]; 30 s) was 69.7% and the dissociation percent ([5]; 5 s) was 72.3%. For the same compound, the dissociation percent ([5]; 15 s) was 97.3%.
`CC(C)c1cccc(C(C)C)c1OC(=O)[C@@H](F)CCN1CC1.Cl` [Compound E7, propofol 4-N-(aziridin-1-yl)-2(S)-2-fluorobutyrate hydrochloride] gave a dissociation percent ([4]; 15 s) of 89.4%, a dissociation percent ([4]; 30 s) of 94.4% and a dissociation percent ([5]; 5 s) of 92.3%.
For `CC(C)c1cccc(C(C)C)c1OC(=O)C(F)CCOP(=O)([O-])[O-].[K+].[K+]` (racemic) [Compound G1, {1-[4-(2,6-diisopropylphenoxy)-4-oxo-3-(R,S)-3-fluoro-1-butyl]} phosphate monoester dipotassium salt], the “Sampling time/dissociation percent (%) 15 S” value [4] was 43.7%, the “Sampling time/dissociation percent (%) 30 S” value [4] was 68.7% and the “Sampling time/dissociation percent (%) 5 S” value ([5]; formula G derivatives) was 54.1%. For the same compound, the “Sampling time/dissociation percent (%) 15 S” value ([5]; formula G derivatives) was 67.4% and the “Sampling time/dissociation percent (%) 30 S” value ([5]; formula G derivatives, sampling time 30 s) was 86.9%.
Compound `CC(C)c1cccc(C(C)C)c1OC(=O)[C@H](F)CCN1CCCC1.Cl` [Compound E8, propofol 4-(pyrrolidin-1-yl)-2(R)-2-fluorobutyrate hydrochloride] has a dissociation percent ([4]; 15 s) of 91.1%, a dissociation percent ([4]; 30 s) of 98.2% and a dissociation percent ([5]; 5 s) of 95.6%.
